± gives the expanded uncertainty stated by the source.
Details: for viscosity / mass density: 101.33 kPa, Liquid; for viscosity: Concentric cylinders viscometry; for mass density: Vibrating tube method; for Glass transition temperature: DSC; for Normal melting temperature: Crystal, DTA

viscosity (293.15 K) [mPa·s]	mass density (293.15 K) [kg/m3]	viscosity (298.15 K) [mPa·s]	mass density (298.15 K) [kg/m3]	viscosity (303.15 K) [mPa·s]	mass density (303.15 K) [kg/m3]	viscosity (308.15 K) [mPa·s]	mass density (308.15 K) [kg/m3]	viscosity (313.15 K) [mPa·s]	mass density (313.15 K) [kg/m3]	viscosity (318.15 K) [mPa·s]	mass density (318.15 K) [kg/m3]	viscosity (323.15 K) [mPa·s]	mass density (323.15 K) [kg/m3]	viscosity (328.15 K) [mPa·s]	mass density (328.15 K) [kg/m3]	viscosity (333.15 K) [mPa·s]	mass density (333.15 K) [kg/m3]	viscosity (338.15 K) [mPa·s]	mass density (338.15 K) [kg/m3]	also measured	Compound
5743.4 ± 800	893.1 ± 18	3733.4 ± 510	890.1 ± 18	2468.1 ± 330	887.1 ± 18	1672.3 ± 220	884 ± 18	1159.3 ± 150	881 ± 18	820.4 ± 110	877.9 ± 18	592.1 ± 77	874.9 ± 17	434.7 ± 56	871.8 ± 17	324.9 ± 42	868.8 ± 17	246.3 ± 32	865.8 ± 17	viscosity (343.15 K): 189.2 ± 24 mPa·s; mass density (343.15 K): 862.8 ± 17 kg/m3; viscosity (348.15 K): 147.4 ± 19 mPa·s; mass density (348.15 K): 859.8 ± 17 kg/m3; viscosity (353.15 K): 116.1 ± 15 mPa·s; mass density (353.15 K): 856.8 ± 17 kg/m3; viscosity (358.15 K): 92.4 ± 12 mPa·s; mass density (358.15 K): 853.9 ± 17 kg/m3; viscosity (363.15 K): 74.1 ± 9.4 mPa·s; mass density (363.15 K): 850.9 ± 17 kg/m3; Glass transition temperature: -76.6 ± 1 °C	CCCCC(CC)CCC(=O)[O-].CCCCCCCC[N+](C)(CCCCCCCC)CCCCCCCC [methyltrioctylammonium 4-ethyloctanoate]
2934 ± 240	890.5 ± 7.6	1971.4 ± 150	887.5 ± 7.5	1354.6 ± 100	884.5 ± 7.5	957.7 ± 70	881.5 ± 7.5	692.7 ± 49	878.5 ± 7.4	511.3 ± 36	875.5 ± 7.4	384.4 ± 26	872.5 ± 7.4	293.8 ± 20	869.5 ± 7.4	227.9 ± 15	866.6 ± 7.3	179.2 ± 12	863.6 ± 7.3	viscosity (343.15 K): 142.7 ± 9.2 mPa·s; mass density (343.15 K): 860.7 ± 7.3 kg/m3; viscosity (348.15 K): 114.3 ± 7.3 mPa·s; mass density (348.15 K): 857.8 ± 7.3 kg/m3; viscosity (353.15 K): 92.3 ± 5.9 mPa·s; mass density (353.15 K): 854.9 ± 7.2 kg/m3; viscosity (358.15 K): 74.9 ± 4.8 mPa·s; mass density (358.15 K): 852 ± 7.2 kg/m3; viscosity (363.15 K): 61.8 ± 3.9 mPa·s; mass density (363.15 K): 849.1 ± 7.2 kg/m3; Normal melting temperature: -5.9 ± 0.5 °C; Glass transition temperature: -56.3 ± 1.2 °C	CCCCCCCC/C=C\CCCCCCCC(=O)[O-].CCCCCCCC[N+](C)(CCCCCCCC)CCCCCCCC [methyltrioctylammonium oleate]
2509.9 ± 200	889.9 ± 5.5	1623.7 ± 120	886.9 ± 5.5	1086.6 ± 79	883.9 ± 5.5	749 ± 53	880.9 ± 5.5	530.9 ± 36	877.8 ± 5.4	384.9 ± 26	874.8 ± 5.4	285.3 ± 19	871.8 ± 5.4	215.5 ± 14	868.8 ± 5.4	165.4 ± 10	865.8 ± 5.4	129.5 ± 8.2	862.9 ± 5.3	viscosity (343.15 K): 102.9 ± 6.4 mPa·s; mass density (343.15 K): 859.9 ± 5.3 kg/m3; viscosity (348.15 K): 82.8 ± 5.1 mPa·s; mass density (348.15 K): 857 ± 5.3 kg/m3; viscosity (353.15 K): 67.5 ± 4.2 mPa·s; mass density (353.15 K): 854 ± 5.3 kg/m3; viscosity (358.15 K): 55.5 ± 3.4 mPa·s; mass density (358.15 K): 851 ± 5.3 kg/m3; viscosity (363.15 K): 45.5 ± 2.8 mPa·s; mass density (363.15 K): 847.9 ± 5.3 kg/m3; Glass transition temperature: -83.2 ± 0.8 °C	CCCCCCCC/C=C\CCCCCCCC(=O)[O-].CCCCCC[N+](CCCCCC)(CCCCCC)CCCCCC [tetrahexylammonium oleate]
1689.3 ± 130	878.4 ± 7.4	1153.4 ± 86	875.3 ± 7.4	804.8 ± 58	872.3 ± 7.4	575.4 ± 40	869.2 ± 7.4	420.8 ± 29	866.1 ± 7.3	314.4 ± 21	863.1 ± 7.3	239.4 ± 16	860.1 ± 7.3	185.4 ± 12	857.1 ± 7.2	146.2 ± 9.5	854.1 ± 7.2	117 ± 7.5	851.1 ± 7.2	viscosity (343.15 K): 94.9 ± 6.1 mPa·s; mass density (343.15 K): 848.2 ± 7.2 kg/m3; viscosity (348.15 K): 77.9 ± 4.9 mPa·s; mass density (348.15 K): 845.2 ± 7.1 kg/m3; viscosity (353.15 K): 64.1 ± 4.1 mPa·s; mass density (353.15 K): 842.2 ± 7.1 kg/m3; viscosity (358.15 K): 53.5 ± 3.4 mPa·s; mass density (358.15 K): 839.2 ± 7.1 kg/m3; viscosity (363.15 K): 44.3 ± 2.8 mPa·s; mass density (363.15 K): 836.1 ± 7.1 kg/m3; Normal melting temperature: -29.5 ± 0.7 °C; Glass transition temperature: -79.8 ± 1.5 °C	CCCCCCCC/C=C\CCCCCCCC(=O)[O-].CCCCCCCC[N+](CCCCCCCC)(CCCCCCCC)CCCCCCCC [tetraoctylammonium oleate]

From the NIST ThermoML archive (doi:10.1016/j.jct.2016.04.021)
